# Key:
# [1] = target: tryptic/catheptic 33-kD carboxyl-terminal heparin binding fragment of human plasma fibronectin A-chains (human); assay: ligand affinity column chromatography, competition
# [2] = target: CSPG binding to 33-kD fragment; set-up: species or system human; conditions: inhibitor 500 ug/ml, 2 h, 4°C; CSPG about 7,000 dpm; buffer control <50
# alpha4 integrin subunit = assay: Flow cytometry, cell surface expression of alpha4 integrin after treatment; assay type: cell-based, human; conditions: 1 mM xyloside 24 h (Fig. 2) or chondroitinase ABC (not shown); mAb P4C2
# beta1 integrin subunit = assay: Flow cytometry, cell surface expression of beta1 integrin after treatment; assay type: cell-based, human; conditions: 1 mM xyloside 24 h (Fig. 2) or chondroitinase ABC (not shown); mAb P4C10
# [3] = test system: A375SM human melanoma cells; assay: Cytotoxicity check of treatments; assay type: cell-based; conditions: trypan blue exclusion; 3H-TdR or [35S]methionine incorporation; not shown
# [4] = test system: A375SM human melanoma cells; assay: Promotion of melanoma cell adhesion to coated substrata; assay type: cell-based; conditions: for amount of coated ligand that promoted half maximal cell adhesion: peptide/OVA conjugate on Immulon 1 polystyrene wells, 30-min assay
# anti-FN-C/H-III IgG = assay: ELISA of purified anti-FN-C/H-III IgG; assay type: binding, rabbit; conditions: coated substrata; not shown
# [5] = test system: A375SM human melanoma cells; assay type: cell-based; conditions: for effect of ctDX (alphaDX) on cell adhesion to peptide: 1 mM inactive analogue, FN-C/H-III Fig. 5A, others not shown
# [6] = test system: A375SM human melanoma cells; assay type: cell-based
# [7] = test system: purified melanoma cell CSPG; assay: Binding of purified melanoma CSPG or CS to peptide/OVA affinity columns; set-up: species or system human
# [8] = earlier work, ref McCarthy et al., 1988a, 1990, Haugen et al.; cited from earlier work
# [9] = wells coated with 100 nmole FN-C/H-III/OVA (Fig. 5A)
compound,measurement,setting,value
cell surface chondroitin sulfate proteoglycan (CSPG) purified from A375SM human melanoma cells,"radioactivity bound to the 33-kD fragment column, buffer alone",[1],6980 dpm
"OVA/OVA: ovalbumin coupled to ovalbumin, control conjugate",CSPG in flow through of 33-kD fragment affinity column,[2],123 dpm
chondroitinase ABC,cell surface alpha4 integrin level compared to untreated controls,alpha4 integrin subunit,identical
same,cell surface beta1 integrin level compared to untreated controls,beta1 integrin subunit,identical
same,cytotoxic effect as cause of the inhibition of cell adhesion,[3],not due to cytotoxic
KNNQKSEPLIGRKKT [FN-C/H-II],amount of coated ligand that promoted half maximal cell adhesion,[4],20 nmol
same,recognition by anti-FN-C/H-III IgG in ELISA,anti-FN-C/H-III IgG,did not recognize
same,effect of ctDX (alphaDX) on cell adhesion to peptide,[5],resistant
same,inhibition of cell adhesion by chondroitinase ABC or /3DX,"[5]; approximate, stated in text for chondroitinase ABC or /3DX",~ 50%
same,effect of anti-alpha5 integrin mAb P1D6 on cell adhesion to peptide,"[6]; P1D6 (Fig. 8), mean of triplicate",did not inhibit
same,inhibition of cell adhesion to peptide by anti-alpha4 integrin mAb P4C2,"[6]; P4C2, not shown",50-60%
same,CSPG binding affinity compared with FN-C/H-III,"[7]; affinity column, Discussion",lower affinity than that observed for FN-C/H-III
same,binding of purified CSPG to peptide affinity column,"[7]; peptide/OVA column, applied in 0.05 M NaCl (Fig. 7)",bound purified CSPG
same,heparin binding,[8],bind heparin
YRVRVTPKEKTGPMKE [FN-C/H-III],promotion of melanoma cell adhesion,"[4]; FN-C/H-III/OVA coated wells, 30-min assay (Fig. 4A)",promoted melanoma cell adhesion
same,amount of coated ligand that promoted half maximal cell adhesion,[4],100 nmol
same,recognition by anti-FN-C/H-III IgG in ELISA,anti-FN-C/H-III IgG,specifically recognized
same,effect of /3DX on cell adhesion to FN-C/H-III,"[5]; 1 mM /3DX, wells coated with 100 nmole FN-C/H-III/OVA (Fig. 5A)",inhibited
same,effect of ctDX (alphaDX) on cell adhesion to peptide,[5],not by heparitinase or t~DX
same,effect of chondroitinase ABC on cell adhesion to FN-C/H-III,[5]; [9],inhibited
same,effect of heparitinase on cell adhesion to FN-C/H-III,[5]; [9],not by heparitinase
same,effect of anti-alpha4 integrin mAb P4C2 on cell adhesion to peptide,"[6]; P4C2, FN-C/H-III coated substrata",did not inhibit cell adhesion
"O=[N+]([O-])c1ccc(O[C@H]2OC[C@@H](O)[C@H](O)[C@H]2O)cc1 [ctDX, p-Nitrophenyl-ct-o-xylopyranoside]",cytotoxic effect as cause of the inhibition of cell adhesion,[3],not due to cytotoxic
"O=[N+]([O-])c1ccc(O[C@@H]2OC[C@@H](O)[C@H](O)[C@H]2O)cc1 [/3DX, p-nitrophenyl-/3-o-xylopyranoside]",cell surface alpha4 integrin level compared to untreated controls,alpha4 integrin subunit,identical
same,cell surface beta1 integrin level compared to untreated controls,beta1 integrin subunit,identical
same,cytotoxic effect as cause of the inhibition of cell adhesion,[3],not due to cytotoxic

# From PMC2290058 (The Journal of Cell Biology, 1992)
